Experimental data published in the supplement of paper PMC10307832.

What was measured:
Test in all cases: relative viability (nuclei count vs DMSO), 5 days (fraction); higher = more cells survive
[1] = compound: C1=CC2=C(C=C(C(=C2N=C1)O)N=NC3=CC4=C(C=C3)C=C(C=C4)S(=O)(=O)O)S(=O)(=O)O + C[C@]1(O)C[C@@H](c2nc(-c3ccc4ccc(-c5ccccc5)nc4c3)c3c(N)nccn32)C1 [Linsitinib] (partner 1 µM)
Summary of the method: (§1)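 Lung cancer cell lines in 1536-well plates were dosed by pin tool the day after seeding, either with one drug alone or with a fixed anchor-drug dose plus five library-drug doses (not always all listed) in √10 steps. After 5 days, cells were fixed and their nuclei stained in one step (final 0.05% Triton X-100, 1% formaldehyde, 1 ug/ml Hoechst), then counted on 4× images. Relative viability is the nuclei count in treated wells divided by that in vehicle wells. Values are medians of duplicate plates.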

AT-7519 + Palbociclib = compound: O=C(NC1CCNCC1)c1n[nH]cc1NC(=O)c1c(Cl)cccc1Cl [AT-7519] + CC(=O)c1c(C)c2cnc(Nc3ccc(N4CCNCC4)cn3)nc2n(C2CCCC2)c1=O [Palbociclib] (partner 0.5 µM)
Summary of the method: as §1

AT-7519 + Decitabine = compound: O=C(NC1CCNCC1)c1n[nH]cc1NC(=O)c1c(Cl)cccc1Cl [AT-7519] + Nc1ncn([C@H]2C[C@H](O)[C@@H](CO)O2)c(=O)n1 [Decitabine] (partner 2 µM)
Summary of the method: as §1

[2] = compound: C1=CC2=C(C=C(C(=C2N=C1)O)N=NC3=CC4=C(C=C3)C=C(C=C4)S(=O)(=O)O)S(=O)(=O)O + C[C@@H](Oc1cc(-c2cnn(C3CCNCC3)c2)cnc1N)c1c(Cl)ccc(F)c1Cl [Crizotinib] (partner 1 µM)
Summary of the method: as §1

Cell Line	relative viability ([1]; first compound 0.08 µM)	relative viability ([1]; first compound 0.253 µM)	relative viability ([1]; first compound 0.8 µM)	relative viability ([1]; first compound 2.53 µM)	relative viability ([1]; first compound 8 µM)	relative viability (AT-7519 + Palbociclib; first compound 0.01 µM)	relative viability (AT-7519 + Palbociclib; first compound 0.03162 µM)	relative viability (AT-7519 + Palbociclib; first compound 0.3162 µM)	relative viability (AT-7519 + Palbociclib; first compound 1 µM)	relative viability (AT-7519 + Decitabine; first compound 0.01 µM)	relative viability (AT-7519 + Decitabine; first compound 0.03162 µM)	relative viability (AT-7519 + Decitabine; first compound 0.3162 µM)	relative viability (AT-7519 + Decitabine; first compound 1 µM)	relative viability ([2]; first compound 0.08 µM)	relative viability ([2]; first compound 0.253 µM)	relative viability ([2]; first compound 0.8 µM)	relative viability ([2]; first compound 2.53 µM)	relative viability ([2]; first compound 8 µM)
LXF-289	1.05	0.977	0.957	1.02	0.917	0.597	0.656	0.527	0.577	0.383	0.377	0.333	0.375	0.886	0.762	0.792	0.835	0.741
NCI-H522	–	–	–	–	–	0.969	0.967	0.995	0.788	0.648	0.588	0.662	0.644	–	–	–	–	–
NCI-H596	1.02	1.07	1.1	1.14	1.15	–	–	–	–	0.939	0.967	0.789	1.16	1.13	1.02	0.921	0.899	0.898
NCI-H1299	1.04	0.98	0.937	0.955	0.986	–	–	–	–	–	–	–	–	0.892	0.971	0.933	0.943	0.988
NCI-H1395	1.11	1.18	1.34	1	1.18	0.561	0.699	0.573	0.504	0.658	0.726	0.691	0.582	–	–	–	–	–
NCI-H1563	1.35	1.16	1.29	1.28	1.21	–	–	–	–	–	–	–	–	0.875	0.883	0.886	0.851	0.873
NCI-H1648	–	–	–	–	–	0.32	–	0.242	0.245	0.427	–	0.438	0.445	–	–	–	–	–
NCI-H1650	–	–	–	–	–	0.284	0.331	0.27	0.164	0.401	0.388	0.431	0.204	1.05	0.894	0.962	1.15	1.01
NCI-H1703	0.865	–	0.821	0.371	0.959	–	–	–	–	–	–	–	–	0.795	0.717	0.526	0.559	0.735
NCI-H1793	1.29	0.678	–	1.04	0.964	0.309	0.299	0.305	0.285	0.517	0.551	0.449	0.378	–	–	–	–	–
NCI-H2170	–	–	–	–	–	0.418	0.427	0.345	0.423	0.495	0.454	0.461	0.522	1.38	1.1	1.15	1.23	1.2
NCI-H2228	0.653	0.611	0.598	0.634	0.777	0.638	0.642	0.636	0.408	–	–	–	–	0.399	0.597	0.642	0.587	0.482
NCI-H2342	–	–	–	–	–	0.53	0.491	0.497	0.533	0.709	0.61	0.701	0.631	–	–	–	–	–
SW 900	–	–	–	–	–	0.552	0.595	0.512	0.463	0.437	0.435	0.422	0.32	–	–	–	–	–
